Assay results reported in ChEMBL document CHEMBL1153565, “Physicochemical properties and membrane interactions of anti-apoptotic derivatives 2-(4-fluorophenyl)-3-(pyridin-4-yl)imidazo[1,2-a]pyridine depending on the hydroxyalkylamino side chain length and conformation: an NMR and ESR study” (Eur J Med Chem, 2009).

Tests used:
[1] = Partition coefficient, log P of the compound; format: physicochemical; settings: octanol/water
THP-1 = experiment: Membrane penetration of compound in human THP1 cells assessed as membrane binding; format: ADME, cell-based
[2] = Solubility of compound in water; format: physicochemical; settings: buffer

SMILES | logP [1] | Activity (THP-1) | solubility [2]
OCCCCNc1ccc2nc(-c3ccc(F)cc3)c(-c3ccncc3)n2c1 | 2.3 | Not Active | Insoluble
OCCNc1ccc2nc(-c3ccc(F)cc3)c(-c3ccncc3)n2c1 | 1.75 | Not Active | Insoluble
OCCCCCCNc1ccc2nc(-c3ccc(F)cc3)c(-c3ccncc3)n2c1 | 3.2 | Active | Soluble
